According to patent publication US20130149701A1, “METHODS OF IDENTIFYING THERAPEUTIC AGENTS FOR TREATING PERSISTER AND BACTERIAL INFECTION” (priority 2010, published 2013):
Converted amounts (≈) assume the structure as drawn. “Also recorded” adds a separate entry of the source. Read-outs that look alike come from different tables or passages of the source.

Experiments:
[1] = molecular target: DHM444 mutant RpsA binding to tmRNA (Mycobacterium tuberculosis, UniProt P9WH43, DEL438-438); set-up: species or system M. tuberculosis
[2] = test system: M. tuberculosis strains (wild type and wild type/pOLYG, and wild type/pOLYG+rpsA); experiment: microbe, parasite or virus in culture; type: cell-based; details: for susceptibility of the RpsA overexpressing Mtb strain to other drugs: compared with parent strain or vector control strain, pH6.8; for MIC: Mycobacterium tuberculosis, read-out: minimum inhibitory concentration (MIC)
[3] = molecular target: mutant RpsAΔA438 from the PZA-resistant strain DHM444 (Mycobacterium tuberculosis, UniProt P9WH43, DEL438-438); type: binding, M. tuberculosis
M. tuberculosis = type: cell-based
[4] = test system: Mtb clinical isolate DHM444 / H37Rv; experiment: microbe, parasite or virus in culture; type: cell-based, M. tuberculosis; details: Mycobacterium tuberculosis

NNC(=O)c1ccncc1 [INH, isoniazid]
effect on tmRNA binding to mutant RpsA [1]: no effect; also recorded: not affected
susceptibility of the RpsA overexpressing Mtb strain to other drugs [2]: remained the same

O=C(O)c1cnccn1 [POA, 2-pyrazinecarboxylic acid]
effect on tmRNA binding to mutant RpsA [1]: did not inhibit
binding to mutant RpsA (ITC) [3]: not and failed to bind

NC(=O)c1cnccn1 [PZA, Pyrazinamide]
MIC (M. tuberculosis): 10 µg/mL (≈ 81.2 µM)
PZA susceptibility (M. tuberculosis): more susceptible
effect on PZA susceptibility (M. tuberculosis): did not have significant effect
reduction in MIC (M. tuberculosis): 5 fold
effect on tmRNA binding to mutant RpsA [1]: no effect; also recorded: not affected
binding to mutant RpsA (ITC) [3]: did not bind; also recorded: failed to bind
MIC ([2]; pH 5.5, PZA, vector control and parental Mtb strain, pH 5.5): 100 µg/mL (≈ 812 µM)
MIC ([2]; pH 5.5): 500 µg/mL (≈ 4060 µM)
increase in the minimum inhibitory concentration (MIC) ([2]; pH 5.5): 5 fold
MIC [4]: 200 to 300 µg/mL (≈ 1620 to 2440 µM)

CCn1cc(C(=O)O)c(=O)c2cc(F)c(N3CCNCC3)cc21 [norfloxacin]
susceptibility of the RpsA overexpressing Mtb strain to other drugs [2]: remained the same

CO[C@H]1/C=C/O[C@@]2(C)Oc3c(C)c(O)c4c(O)c(c(/C=N/N5CCN(C)CC5)c(O)c4c3C2=O)NC(=O)/C(C)=C\C=C\[C@H](C)[C@H](O)[C@@H](C)[C@@H](O)[C@@H](C)[C@H](OC(C)=O)[C@@H]1C [rifampin]
susceptibility of the RpsA overexpressing Mtb strain to other drugs [2]: remained the same

[H]/N=C(/N)N[C@H]1[C@H](O)[C@@H](O)[C@H](O[C@@H]2O[C@@H](C)[C@](O)(C=O)[C@H]2O[C@@H]2O[C@@H](CO)[C@H](O)[C@@H](O)[C@@H]2NC)[C@@H](N/C(N)=N\[H])[C@@H]1O [streptomycin]
susceptibility of the RpsA overexpressing Mtb strain to other drugs [2]: remained the same
